Data taken from article PMC9511441, “Semisynthetic teicoplanin derivatives with dual antimicrobial activity against SARS-CoV-2 and multiresistant bacteria” (Scientific Reports, 2022).
Values after ≈ are worked out from the molar mass of the structure shown. Like-named read-outs stand apart in the source and are kept apart here.

Columns and labels:
VeroE6 cells = test: Cytotoxicity in mock-infected VeroE6 cells (XTT); assay type: cell-based, African green monkey; conditions: mock-infected Vero E6 cells, three days, XTT
HEL cells = test: Cytotoxicity in mock-infected HEL cells (MTS); assay type: cell-based, human; conditions: mock-infected HEL cells, MTS, mean of 2–3 tests
[1] = molecular target: T1, human recombinant cathepsin L (Homo sapiens, UniProt P07711); test: biochemical; assay type: biochemical
T1 construct: made in house; host or cells: Escherichia coli
T1 sequence (P07711 114-333): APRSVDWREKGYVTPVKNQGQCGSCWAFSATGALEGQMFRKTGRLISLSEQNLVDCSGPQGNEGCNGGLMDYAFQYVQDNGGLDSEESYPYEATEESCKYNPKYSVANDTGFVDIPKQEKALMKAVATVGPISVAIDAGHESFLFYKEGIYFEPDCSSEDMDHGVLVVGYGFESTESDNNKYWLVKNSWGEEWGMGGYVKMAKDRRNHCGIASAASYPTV
Protocol: Cathepsin L inhibition was assessed as reported. Briefly, human recombinant cathepsin L was expressed in Escherichia coli[33]. Enzymatic activity was determined in 100 mM acetate buffer (pH 5.5) containing 0.1% PEG 8000, 5 mM cysteine and 1.5 mM EDTA. The enzyme was first activated in assay buffer for 5 min at 37 °C, after which it was added to the wells of a black microplate containing the Z-Phe-Arg-AMC substrate (Bachem) and compounds. Formation of the fluorescent cleavage product was monitored for 50 min at 37 °C, using a Tecan Infinit M1000 spectrofluorimeter set at 460 nm emission and 380 nm excitation wavelength. All assay mixtures contained 5% (v/v) DMSO and 0.01% Triton X-100 to prevent false-positive inhibition due to formation of compound aggregates. All measurements were performed in triplicate and repeated twice. The relative inhibition was calculated using the equation: Relative inhibition (%) = 100(1 − vi/vo), where vi and vo designate the reaction velocities in the presence and absence of inhibitor, respectively. IC50 values were determined from nine data points at different inhibitor concentrations.

SARS-CoV-2 pseudovirus [2] = test: microbe, parasite or virus in culture; assay type: cell-based; conditions: A549-AT cells, TMPRSS2-mediated uptake
SARS-CoV-2 pseudovirus [3] = test: microbe, parasite or virus in culture; assay type: cell-based; conditions: cathepsin-dependent endosomal pathway
Calu-3 cells = test: Cytotoxicity in mock-infected Calu-3 cells (XTT); conditions: read-out: CC50, Calu-3 cells, three days
E. faecalis = test: MIC, broth microdilution; assay type: cell-based; conditions: Enterococcus faecalis
Description: (§1) We determined the minimal inhibitory concentrations (MIC) of the teicoplanin conjugates for a large panel of Gram-positive bacterial strains, using vancomycin, unmodified teicoplanin, dalbavancin and oritavancin as reference compounds. […] The bacterial strains (see Suppl. Table S5 for all details) were selected to achieve maximum diversity of multidrug-resistance and include strains with known mechanisms of resistance to glycopeptides in clinical use. The S. epidermidis and S. haemolyticus strains resistant to dalbavancin and oritavancin were obtained in vitro from clinical isolates sensitive to the glycopeptide antibiotics.

S. aureus = test: MIC, broth microdilution; assay type: cell-based; conditions: Staphylococcus aureus
Description: as §1

S.pyogenes = test: MIC, broth microdilution; assay type: cell-based; conditions: Streptococcus pyogenes
Description: as §1

S. haemolyticus = test: MIC, broth microdilution; assay type: cell-based; conditions: Staphylococcus haemolyticus
Description: as §1

E. faecium = test: microbe, parasite or virus in culture; assay type: cell-based; conditions: Enterococcus faecium
Description: as §1

S. epidermidis = test: microbe, parasite or virus in culture; assay type: cell-based; conditions: Staphylococcus epidermidis
Description: as §1

SARS-CoV-2 = test: microbe, parasite or virus in culture; assay type: cell-based; conditions: for EC50: Severe acute respiratory syndrome coronavirus 2, Vero C1008, 72 h, Vero E6 cells, three days, XTT, read-out: EC50, CPE reduction, SARS-CoV-2 in Vero E6 cells
[4] = Cytotoxicity in mock-infected VeroE6 cells (XTT); assay type: cell-based, African green monkey; conditions: African green monkey; for CC50: mock-infected Vero E6 cells, three days, XTT
[5] = tested on: Pseudomonas aeruginosa ATCC 27853; test: MIC against Gram-negative strain; conditions: ATCC27853
[6] = tested on: Acinetobacter baumannii ATCC BAA1605; test: MIC against Gram-negative strain; conditions: Acinetobacter baumannii, ATCCBAA1605
[7] = tested on: Klebsiella pneumoniae ST258 clone K 160/09; test: MIC against Gram-negative strain; conditions: Klebsiella pneumoniae
[8] = tested on: Escherichia coli ATCC 25218; test: MIC against Gram-negative strain; conditions: ATCC25218
[9] = read-out: Cathepsin L IC50, pH 5.5, Z-Phe-Arg-AMC substrate

## CCCCCCCCOC1C(OC)OC(COCCOCCOCCOCCOCc2cn(C3C(=O)NC4Cc5ccc(c(Cl)c5)Oc5cc6cc(c5O)Oc5ccc(cc5Cl)C(OC5OC(CO)C(O)C(O)C5NC(C)=O)C5NC(=O)C(NC(=O)C6NC(=O)C(NC4=O)c4cc(O)cc(c4)Oc4cc3ccc4O)c3ccc(O)c(c3)-c3c(O)cc(O)cc3C(C(=O)O)NC5=O)nn2)C(O)C1OCCCCCCCC (stereo not drawn) [Compound 1]
VeroE6 cells
  CC50: > 100 µM
HEL cells
  CC50: > 100 µM
[1]; [9]
  IC50: 49 ± 1 µM
SARS-CoV-2 pseudovirus [2]
  Inhibition of pseudovirus entry in A549-AT cells (in words): active, though less potent
SARS-CoV-2 pseudovirus [3]
  Inhibition of pseudovirus entry in Vero cells (in words): highly effective
Calu-3 cells
  CC50: 75 ± 9 µM

## CC(=O)N[C@H]1[C@H](O[C@@H]2c3ccc(c(Cl)c3)Oc3cc4cc(c3O)Oc3ccc(cc3Cl)C[C@H]3NC(=O)[C@H](NC(=O)CCC(F)(F)C(F)(F)C(F)(F)C(F)(F)C(F)(F)C(F)(F)C(F)(F)C(F)(F)F)c5ccc(O)c(c5)Oc5cc(O)cc(c5)[C@H](NC3=O)C(=O)N[C@H]4C(=O)N[C@H]3C(=O)N[C@@H]2C(=O)N[C@H](C(=O)O)c2cc(O)cc(O)c2-c2cc3ccc2O)O[C@H](CO)[C@@H](O)[C@@H]1O [Compound 5]
E. faecalis; read-out: Average MIC value, E. faecalis VAN^R,TEI^R/VanA, 1 strain
  MIC: > 8 µg/mL
E. faecalis; read-out: Average MIC value, E. faecalis VAN^S, TEI^S, 2 strains
  MIC: 0.25 µg/mL (≈ 0.133 µM)
E. faecalis; read-out: MIC value, E.faecalis JH2-2
  MIC: 0.25 µg/mL (≈ 0.133 µM)
E. faecalis; read-out: MIC value, E.faecalis OG1RF
  MIC: 0.25 µg/mL (≈ 0.133 µM)
E. faecalis; read-out: MIC value, E.faecalis V583, VAN,TEI/VanA
  MIC: > 8 µg/mL
S. aureus; ATCC 29213 / MSSA, read-out: MIC value, S. aureus ATCC29213, MSSA
  MIC: 1 µg/mL (≈ 0.533 µM)
S. aureus; MRSA / USA300, read-out: MIC value, S. aureus USA300, CA-MRSA
  MIC: 4 µg/mL (≈ 2.13 µM)
S. aureus; MRSA, read-out: Average MIC value, S. aureus CA-MRSA, 1 strain
  MIC: 4 µg/mL (≈ 2.13 µM)
S. aureus; MRSA, read-out: Average MIC value, S. aureus MRSA, 7 strains
  MIC: 2.57 µg/mL (≈ 1.37 µM)
S. aureus; MRSA, read-out: MIC value, S. aureus 73OL, MRSA
  MIC: 2 µg/mL (≈ 1.07 µM)
S. aureus; MRSA, read-out: MIC value, S. aureus 214OL, MRSA
  MIC: 4 µg/mL (≈ 2.13 µM)
S. aureus; MRSA, read-out: MIC value, S. aureus 1041OL, MRSA
  MIC: 4 µg/mL (≈ 2.13 µM)
S. aureus; MRSA, read-out: MIC value, S. aureus A6918, MRSA
  MIC: 2 µg/mL (≈ 1.07 µM)
S. aureus; MRSA, read-out: MIC value, S. aureus A6919, MRSA
  MIC: 2 µg/mL (≈ 1.07 µM)
S. aureus; MRSA, read-out: MIC value, S. aureus Mu50, MRSA
  MIC: 2 µg/mL (≈ 1.07 µM)
S. aureus; MRSA, read-out: MIC value, S. aureus N315, MRSA
  MIC: 2 µg/mL (≈ 1.07 µM)
S. aureus; MSSA / NEWMAN, read-out: MIC value, S. aureus Newman, MSSA
  MIC: 2 µg/mL (≈ 1.07 µM)
S. aureus; MSSA, read-out: Average MIC value, S. aureus MSSA, 4 strains
  MIC: 1.75 µg/mL (≈ 0.933 µM)
S. aureus; MSSA, read-out: MIC value, S. aureus MSSA476, MSSA
  MIC: 2 µg/mL (≈ 1.07 µM)
S. aureus; MSSA, read-out: MIC value, S. aureus SA564, MSSA
  MIC: 2 µg/mL (≈ 1.07 µM)
S.pyogenes; read-out: MIC value, S.pyogenes H232
  MIC: 0.25 µg/mL (≈ 0.133 µM)
S.pyogenes; read-out: MIC value, S.pyogenes H550
  MIC: 0.25 µg/mL (≈ 0.133 µM)
S.pyogenes; read-out: MIC value, S.pyogenes H578
  MIC: 0.25 µg/mL (≈ 0.133 µM)
S. haemolyticus; S. haemolyticus mecA, 6 strains, read-out: Average MIC value
  MIC: 7 µg/mL (≈ 3.73 µM)
S. haemolyticus; S.haemolyticus DALB_R1, mecA, read-out: MIC value
  MIC: 8 µg/mL (≈ 4.26 µM)
S. haemolyticus; S.haemolyticus DALB_R2, mecA, read-out: MIC value
  MIC: 8 µg/mL (≈ 4.26 µM)
S. haemolyticus; S.haemolyticus DALB_R3, mecA, read-out: MIC value
  MIC: 8 µg/mL (≈ 4.26 µM)
S. haemolyticus; S.haemolyticus DALB_R4, mecA, read-out: MIC value
  MIC: 8 µg/mL (≈ 4.26 µM)
S. haemolyticus; S.haemolyticus DALB_R5, mecA, read-out: MIC value
  MIC: 2 µg/mL (≈ 1.07 µM)
S. haemolyticus; S.haemolyticus ORI_R1, mecA, read-out: MIC value
  MIC: 8 µg/mL (≈ 4.26 µM)
E. faecium; read-out: Average MIC value, E. faecium VAN^R,TEI^R/VanA, 8 strains
  MIC: > 8 µg/mL
E. faecium; read-out: Average MIC value, E. faecium VAN^S, TEI^S, 1 strain
  MIC: 0.25 µg/mL (≈ 0.133 µM)
E. faecium; read-out: MIC value, E.faecium E335, VAN,TEI,LNZ/VanA
  MIC: > 8 µg/mL
E. faecium; read-out: MIC value, E.faecium E355, VAN,TEI,LNZ/VanA
  MIC: > 8 µg/mL
E. faecium; read-out: MIC value, E.faecium E832, VAN,TEI,LNZ/VanA
  MIC: > 8 µg/mL
E. faecium; read-out: MIC value, E.faecium E854, VAN,TEI,LNZ/VanA
  MIC: > 8 µg/mL
E. faecium; read-out: MIC value, E.faecium E859, VAN,TEI,LNZ/VanA
  MIC: > 8 µg/mL
E. faecium; read-out: MIC value, E.faecium E1114, VAN,TEI,LNZ/VanA
  MIC: > 8 µg/mL
E. faecium; read-out: MIC value, E.faecium E1131, VAN,TEI,LNZ/VanA
  MIC: > 8 µg/mL
E. faecium; read-out: MIC value, E.faecium E1132, VAN,TEI,LNZ/VanA
  MIC: > 8 µg/mL
E. faecium; read-out: MIC value, E.faecium TX0016
  MIC: 0.25 µg/mL (≈ 0.133 µM)
S. epidermidis; read-out: Average MIC value, S. epidermidis mecA, 6 strains
  MIC: 1.4 µg/mL (≈ 0.746 µM)
S. epidermidis; read-out: MIC value, S.epidermidis ORI_R1, mecA
  MIC: 4 µg/mL (≈ 2.13 µM)
S. epidermidis; read-out: MIC value, S.epidermidis ORI_R2, mecA
  MIC: 1 µg/mL (≈ 0.533 µM)
S. epidermidis; read-out: MIC value, S.epidermidis ORI_R3, mecA
  MIC: 2 µg/mL (≈ 1.07 µM)
S. epidermidis; read-out: MIC value, S.epidermidis ORI_R4, mecA
  MIC: 0.5 µg/mL (≈ 0.266 µM)
S. epidermidis; read-out: MIC value, S.epidermidis TEI_R1, mecA
  MIC: 0.5 µg/mL (≈ 0.266 µM)
S. epidermidis; read-out: MIC value, S.epidermidis TEI_R2, mecA
  MIC: 0.5 µg/mL (≈ 0.266 µM)
VeroE6 cells
  CC50: > 100 µM
HEL cells
  CC50: > 100 µM
[1]; [9]
  IC50: 52 ± 1 µM
Calu-3 cells
  CC50: > 100 µM

## OCCCC(F)(F)C(F)(F)C(F)(F)C(F)(F)C(F)(F)C(F)(F)F [Compound 9]
SARS-CoV-2
  EC50: > 100 µM
  Reduction of the CPE of SARS-CoV-2 in VeroE6 cells (in words): not active
[4]
  CC50: > 100 µM

## OCCCC(F)(F)C(F)(F)C(F)(F)C(F)(F)C(F)(F)C(F)(F)C(F)(F)C(F)(F)F [Compound 13]
SARS-CoV-2
  EC50: > 100 µM
  Reduction of the CPE of SARS-CoV-2 in VeroE6 cells (in words): not active
[4]
  CC50: > 100 µM

## N=C(N)NCCSCCCOc1cc(C(=O)OCc2ccccc2)cc(OCCCSCCNC(=N)N)c1OCCCSCCNC(=N)N [Compound 24]
[5]
  MIC: 25.6 µg/mL (≈ 34.7 µM)
[6]
  MIC: 25.6 µg/mL (≈ 34.7 µM)
SARS-CoV-2
  EC50: > 100 µM
  Reduction of the CPE of SARS-CoV-2 in VeroE6 cells (in words): not active
[4]
  CC50 at 3 days: 33.2 µM
[7]
  MIC: 128 µg/mL (≈ 173 µM)
[8]
  MIC: 3.2 µg/mL (≈ 4.34 µM)
[1]
  IC50: 18 ± 1 µM
